The values that follow come from US12721838B2 (Henry Ford Health System, priority 2020, dated 2026).

“Also recorded” adds a separate entry of the source. Where a SMILES comes first, the peptide text is derived from it. The star is where a group is joined. Cbz = O=C(OCc1ccccc1)*; CH2F = FC*

For the first experiment, the system named is LNCaP-ENR cells. In words: Apoptosis by Annexin V binding, flow cytometry. In kind it is cell-based, human. To be noted: ERPC cells pretreated. As to the method: To test DCV effects on cancer cell apoptosis, LNCaP-ENR cells were treated with 8 μM DCV for 24 hours and analyzed by flow cytometry. Treatment with DCV indicated increased Annexin V binding, a read-out for apoptosis (FIG. 3C).
Background: In flow cytometry, cells or beads pass a laser one at a time.
As to `COC(=O)C[C@H](NC(=O)[C@H](C)NC(=O)[C@@H](NC(=O)OCc1ccccc1)C(C)C)C(=O)CF` [Z-VAD-FMK] (Cbz-Val-Ala-Asp(OMe)-CH2F), the “DCV treatment-induced apoptosis after pretreatment with caspase inhibitor” value is on record as “inhibited”.

A further experiment deals with T1, Trib2-Luciferase (Luc-Trib2) fusion (Homo sapiens, UniProt Q92519).
T1 sequence (Q92519 with tags, fused parts or gaps): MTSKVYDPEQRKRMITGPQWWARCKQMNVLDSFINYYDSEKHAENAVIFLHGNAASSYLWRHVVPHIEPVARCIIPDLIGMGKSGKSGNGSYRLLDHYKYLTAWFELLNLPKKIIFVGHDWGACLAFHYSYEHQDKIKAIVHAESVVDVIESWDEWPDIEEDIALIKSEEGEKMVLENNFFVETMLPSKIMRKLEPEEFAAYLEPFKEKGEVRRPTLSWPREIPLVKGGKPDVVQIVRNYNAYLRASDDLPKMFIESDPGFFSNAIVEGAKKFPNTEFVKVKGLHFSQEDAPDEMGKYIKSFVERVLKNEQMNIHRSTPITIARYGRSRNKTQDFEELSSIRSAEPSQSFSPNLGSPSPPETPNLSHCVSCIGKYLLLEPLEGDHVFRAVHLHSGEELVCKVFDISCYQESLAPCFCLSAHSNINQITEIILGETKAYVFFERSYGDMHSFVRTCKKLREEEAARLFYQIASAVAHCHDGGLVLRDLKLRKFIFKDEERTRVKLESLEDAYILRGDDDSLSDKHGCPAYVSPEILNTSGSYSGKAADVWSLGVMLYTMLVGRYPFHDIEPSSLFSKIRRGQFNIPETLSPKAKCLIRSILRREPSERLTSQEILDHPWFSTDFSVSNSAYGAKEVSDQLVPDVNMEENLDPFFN
Assay: not given
To be noted: 10 µM.
`CC[C@H]1[C@@H]2C[C@H]3[C@@H]4N(C)c5ccccc5[C@]45C[C@@H]([C@@H]2[C@H]5O)N3[C@@H]1O` [Ajamaline]: the “Luciferase activity (%)” value turned out to be 93%. In the case of `NS(=O)(=O)c1cc(Cl)c(Cl)c(S(N)(=O)=O)c1` [Dichlorphrnamide], the “Luciferase activity (%)” value was 100%.

With Temsirolmus, the “Luciferase activity (%)” value was determined as 94%. Take `COC(=O)[C@H]1[C@H]2C[C@@H]3c4[nH]c5cc(OC)ccc5c4CCN3C[C@H]2C[C@@H](OC(=O)c2cc(OC)c(OC)c(OC)c2)[C@@H]1OC` [Resperine]: the “Luciferase activity (%)” value worked out at 91%. Turning to Niraparib tosylate, the “Luciferase activity (%)” value was found to be 93%.

The same experiment, now with this note: 10 μM, 24 hours, HFF-Trib2-Luc cells.
In the case of `Nc1nc2c(ncn2CCC(CO)CO)c(=O)[nH]1` [Penciclovir], the “inhibition of Trib2-luciferase activity (in words)” value (from here on “inhibition”) is recorded as “not effective”. On to `C[C@@H]1CCO[C@H]2Cn3cc(C(=O)NCc4ccc(F)cc4F)c(=O)c(O)c3C(=O)N12` [Dolutegravir], for which the “inhibition” value was “completely ineffective; also recorded: not effective”. For `CC(C)CN(C[C@@H](O)[C@H](Cc1ccccc1)NC(=O)O[C@H]1CO[C@H]2OCC[C@H]21)S(=O)(=O)c1ccc(N)cc1` [Darunavir], the “inhibition” value is given as “completely ineffective; also recorded: not effective”.

The same experiment, now with this note: 10 μM, 24 hours; Trib2-Luciferase fusion construct-transfected HFF cells; […].
Turning to `Nc1ccc(O)c(C(=O)O)c1` [5-Aminosalicyclic acid], the “Luciferase activity (%)” value worked out at 84%. With `CC(=O)NCCCCCC(=O)O` [6-Acetamidohexanoic], the “Luciferase activity (%)” value came out at 100%.

The target of the next experiment is T1, Trib2-Luciferase (Luc-Trib2) fusion. In words: cell-based. To be noted: HFF, read-out: Luciferase activity (%).
Regarding `Nc1nc2c(ncn2CCC(CO)CO)c(=O)[nH]1` [Penciclovir], the activity at 10 µM amounted to 97%. Regarding `CCC(=O)NCC[C@@H]1CCc2ccc3c(c21)CCO3` [Ramelteon], the activity at 10 µM was 100%. With `CC1(C)CCC(C)(C)c2cc(NC(=O)c3ccc(C(=O)O)cc3)ccc21` [Tamibarotene], the activity at 10 µM was 100%. As to `CC1CCc2c(N3CCC(O)CC3)c(F)cc3c(=O)c(C(=O)O)cn1c23` (stereo not shown) [Nadifloxacin], the activity at 10 µM was 96%. Still for that read-out and setting: as for `CC(C)(C)c1nc(-c2cccc(NS(=O)(=O)c3c(F)cccc3F)c2F)c(-c2ccnc(N)n2)s1` [Dabrafenib], the figure is 72%; as for `O=C(O)c1cc(=O)c2c(OCC(O)COc3cccc4oc(C(=O)O)cc(=O)c34)cccc2o1` [Cromolyn], 93%; as for `OB1OCc2cc(F)ccc21` [Tavaborole], 75%. In the case of `C[C@]12CC[C@@H]3c4ccc(O)cc4CC[C@H]3[C@@H]1CCC2=O` [Estrone], the activity at 10 µM worked out at 82%. As for `CC(=O)N1C[C@H](O)C[C@H]1C(=O)O` [Oxaceprol], the activity at 10 µM turned out to be 100%. As to `OCCN(CCO)c1nc(N2CCCCC2)c2nc(N(CCO)CCO)nc(N3CCCCC3)c2n1` [Dipyridamole], the activity at 10 µM stood at 98%. Turning to `CS(=O)(=O)OCCCCOS(C)(=O)=O` [Busulfan], the activity at 10 µM came out at 100%.

With `CCOC(=O)N[C@@H]1CC[C@@H]2[C@@H](C1)C[C@H]1C(=O)O[C@H](C)[C@H]1[C@H]2/C=C/c1ccc(-c2cccc(F)c2)cn1` [Vorapaxar], the activity at 10 µM is 59%. Take `O=C(Nc1ccc([N+](=O)[O-])cc1Cl)c1cc(Cl)ccc1O` [Niclosamide]: the activity at 10 µM is 62%.

On to `CC(C)OC(=O)C(C)(C)Oc1ccc(C(=O)c2ccc(Cl)cc2)cc1` [Fenofibrate], for which the activity at 10 µM turned out to be 92%. Turning to `Fc1ccc([C@@H]2CCNC[C@H]2COc2ccc3c(c2)OCO3)cc1` [Paroxetine], the activity at 10 µM is 93%. `CC[C@@H](CO)NCCN[C@@H](CC)CO` [Ethambutol]: the activity at 10 µM stood at 98%. In the case of `C#Cc1cccc(Nc2ncnc3cc(OCCOC)c(OCCOC)cc23)c1` [Erlotinib], the activity at 10 µM stood at 50%. On the same count and under the same terms, the same measure for `O=C1Nc2ccc(Cl)cc2[C@@](C#CC2CC2)(C(F)(F)F)O1` [Efavirenz]: 89%.

Consider `Cc1cnc(NC(=O)C2=C(O)c3ccccc3S(=O)(=O)N2C)s1` [Meloxicam], for which the activity at 10 µM is 100%. As for `O=c1[nH]c(=O)n(C2CCCO2)cc1F` (stereo not shown) [Tegafur], the activity at 10 µM is 100%. `CN(C)C(=O)Oc1ccc[n+](C)c1` [Pyridostigmine]: the activity at 10 µM was found to be 76%. Take `CN1CCC(=C2c3ccccc3CCn3c(C=O)cnc32)CC1` [Alcaftadine]: the activity at 10 µM came to 100%. On to `CN(C)c1cc(NC(=O)CNC(C)(C)C)c(O)c2c1C[C@H]1C[C@H]3[C@H](N(C)C)C(O)=C(C(N)=O)C(=O)[C@@]3(O)C(O)=C1C2=O` [Tigecycline], for which the activity at 10 µM stood at 63%.

`Cc1cccn2c(=O)c(-c3nnn[nH]3)cnc12` [Pemirolast]: the activity at 10 µM amounted to 88%.

For `CCN(CC)C(=O)C1(c2ccccc2)CC1CN` (stereo not shown) [Milnacipran], the activity at 10 µM was 85%.

On to `[H]/N=C(/N)NS(=O)(=O)c1ccc(N)cc1` [Sulfaguanidine], for which the activity at 10 µM came out at 84%. In the case of `CC(/C=C1\SC(=S)N(CC(=O)O)C1=O)=C\c1ccccc1` [Epalrestat], the activity at 10 µM was 53%.

For `O=C(CCCN1CC=C(n2c(=O)[nH]c3ccccc32)CC1)c1ccc(F)cc1` [Droperidol], the activity at 10 µM amounted to 100%. As to `C[C@@H]1CCO[C@H]2Cn3cc(C(=O)NCc4ccc(F)cc4F)c(=O)c(O)c3C(=O)N12` [Dolutegravir], the activity at 10 µM came out at 100%. Consider `c1cc(CN2CCCNCCNCCCNCC2)ccc1CN1CCCNCCNCCCNCC1` [Plerixafor], for which the activity at 10 µM is 93%. Take `CCOC(=O)c1cncn1[C@H](C)c1ccccc1` [Etomidate]: the activity at 10 µM turned out to be 100%.

For `C[C@H]1c2cccc(O)c2C(=O)C2=C(O)[C@]3(O)C(=O)C(C(N)=O)=C(O)[C@@H](N(C)C)[C@@H]3[C@@H](O)[C@@H]21` [Doxycycline], the activity at 10 µM is 91%.

For `CN1CCN2c3ccccc3Cc3ccccc3C2C1` (stereo not shown) [Mianserin], the activity at 10 µM stood at 55%.

Take `COc1cccc2c1C(=O)c1c(O)c3c(c(O)c1C2=O)C[C@@](O)(C(=O)CO)C[C@@H]3O[C@H]1C[C@H](N)[C@H](O)[C@H](C)O1` [Doxorubicin]: the activity at 10 µM was found to be 28%.

Consider `CCOC(=O)OC(C)OC1=C(C(=O)Nc2ccccn2)N(C)S(=O)(=O)c2ccccc21` (stereo not shown) [Ampiroxicam], for which the activity at 10 µM is 28%.

`CC(C)CN(C[C@@H](O)[C@H](Cc1ccccc1)NC(=O)O[C@H]1CO[C@H]2OCC[C@H]21)S(=O)(=O)c1ccc(N)cc1` [Darunavir]: the activity at 10 µM turned out to be 93%. On to `Nc1nc(N)c2nc(-c3ccccc3)c(N)nc2n1` [Triamterene], for which the activity at 10 µM was 100%. Take `CC1=C(C(=O)OCCN(Cc2ccccc2)c2ccccc2)C(c2cccc([N+](=O)[O-])c2)C(P2(=O)OCC(C)(C)CO2)=C(C)N1` (stereo not shown) [Efonidipine]: the activity at 10 µM was found to be 98%.

With `C[N+](C)(C)C[C@H](O)CC(=O)[O-]` [Levocarnitine], the activity at 10 µM came out at 84%. On to `O[C@@H]1CO[C@H]2[C@@H]1OC[C@@H]2O` [Isosorbide], for which the activity at 10 µM worked out at 91%.

Take `CC(C)(Oc1ccc(Cl)cc1)C(=O)O` [Clofibric acid]: the activity at 10 µM turned out to be 87%. For `CC[C@H]1OC(=O)[C@H](C)[C@@H](O[C@H]2C[C@@](C)(OC)[C@@H](O)[C@H](C)O2)[C@H](C)[C@@H](O[C@@H]2O[C@H](C)C[C@H](N(C)C)[C@H]2O)[C@](C)(OC)C[C@@H](C)C(=O)[C@H](C)[C@@H](O)[C@]1(C)O` [Clarithromycin], the activity at 10 µM amounted to 97%. Take `C=CCc1ccccc1OCC(O)CNC(C)C` (stereo not shown) [Alprenolol]: the activity at 10 µM turned out to be 91%. `Cc1nnc(NS(=O)(=O)c2ccc(N)cc2)s1` [Sulfamethizole]: the activity at 10 µM came out at 94%.
